Reference: US8871753B2, “Macrocyclic compounds and their use as kinase inhibitors” (Incyte Corporation, priority 2008, dated 2014)
Counter-ions that a name gives are not always drawn. Like-named read-outs stand apart in the source and are kept apart here.

Tests used:
Type in all cases: biochemical
[1] = target: T1, human JAK1 (a.a. 837-1142) (Homo sapiens, UniProt P23458); test: In vitro JAK kinase assay (HTRF, phosphorylation of a biotinylated peptide), JAK1; details: read-out: JAK1 IC50
T1 construct: human JAK1 (a.a. 837-1142); His tag (N); made in house; host or cells: insect cells (baculovirus)
How it was run: (§1)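 Phosphorylation of a biotinylated peptide by the JAK kinase domain, detected by HTRF with Eu-Py20 and SA-APC. ATP was 90 μM for JAK1, 30 μM for JAK2 and 3 μM for JAK3. Reactions ran 1 h at room temperature and were stopped with EDTA, followed by 40 min antibody binding.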

[2] = target: T2, human JAK3 (a.a. 781-1124) (Homo sapiens, UniProt P52333); test: In vitro JAK kinase assay (HTRF, phosphorylation of a biotinylated peptide), JAK3
T2 construct: JAK3 (a.a. 781-1124); His tag (N); made in house; host or cells: insect cells (baculovirus)
How it was run: as §1

TYK2 = TYK2 (Homo sapiens, UniProt P29597); test: TYK2 kinase inhibition (Table A1)
[3] = target: T3, human JAK2 (a.a. 828-1132) (Homo sapiens, UniProt O60674); test: In vitro JAK kinase assay (HTRF, phosphorylation of a biotinylated peptide), JAK2
T3 construct: JAK2 (a.a. 828-1132); His tag (N); made in house; host or cells: insect cells (baculovirus)
How it was run: as §1

T2 sequence (P52333 781-1124): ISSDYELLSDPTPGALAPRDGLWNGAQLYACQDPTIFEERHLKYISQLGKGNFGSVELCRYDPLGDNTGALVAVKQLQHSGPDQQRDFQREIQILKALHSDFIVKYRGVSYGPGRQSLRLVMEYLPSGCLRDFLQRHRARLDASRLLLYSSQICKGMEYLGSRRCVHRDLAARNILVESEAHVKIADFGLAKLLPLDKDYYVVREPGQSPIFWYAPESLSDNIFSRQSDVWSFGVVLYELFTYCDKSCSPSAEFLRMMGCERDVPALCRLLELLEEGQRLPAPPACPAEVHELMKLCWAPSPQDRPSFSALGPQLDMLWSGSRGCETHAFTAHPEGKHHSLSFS
T3 sequence (O60674 828-1132): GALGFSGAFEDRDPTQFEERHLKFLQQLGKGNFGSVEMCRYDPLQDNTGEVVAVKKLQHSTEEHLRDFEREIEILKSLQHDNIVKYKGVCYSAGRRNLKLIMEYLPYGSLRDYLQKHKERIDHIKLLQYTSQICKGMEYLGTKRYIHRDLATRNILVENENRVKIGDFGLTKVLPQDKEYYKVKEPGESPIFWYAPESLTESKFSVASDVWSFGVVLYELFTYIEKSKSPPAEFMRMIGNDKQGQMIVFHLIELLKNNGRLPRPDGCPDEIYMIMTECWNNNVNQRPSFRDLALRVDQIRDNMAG
TYK2, sequence (P29597 whole entry): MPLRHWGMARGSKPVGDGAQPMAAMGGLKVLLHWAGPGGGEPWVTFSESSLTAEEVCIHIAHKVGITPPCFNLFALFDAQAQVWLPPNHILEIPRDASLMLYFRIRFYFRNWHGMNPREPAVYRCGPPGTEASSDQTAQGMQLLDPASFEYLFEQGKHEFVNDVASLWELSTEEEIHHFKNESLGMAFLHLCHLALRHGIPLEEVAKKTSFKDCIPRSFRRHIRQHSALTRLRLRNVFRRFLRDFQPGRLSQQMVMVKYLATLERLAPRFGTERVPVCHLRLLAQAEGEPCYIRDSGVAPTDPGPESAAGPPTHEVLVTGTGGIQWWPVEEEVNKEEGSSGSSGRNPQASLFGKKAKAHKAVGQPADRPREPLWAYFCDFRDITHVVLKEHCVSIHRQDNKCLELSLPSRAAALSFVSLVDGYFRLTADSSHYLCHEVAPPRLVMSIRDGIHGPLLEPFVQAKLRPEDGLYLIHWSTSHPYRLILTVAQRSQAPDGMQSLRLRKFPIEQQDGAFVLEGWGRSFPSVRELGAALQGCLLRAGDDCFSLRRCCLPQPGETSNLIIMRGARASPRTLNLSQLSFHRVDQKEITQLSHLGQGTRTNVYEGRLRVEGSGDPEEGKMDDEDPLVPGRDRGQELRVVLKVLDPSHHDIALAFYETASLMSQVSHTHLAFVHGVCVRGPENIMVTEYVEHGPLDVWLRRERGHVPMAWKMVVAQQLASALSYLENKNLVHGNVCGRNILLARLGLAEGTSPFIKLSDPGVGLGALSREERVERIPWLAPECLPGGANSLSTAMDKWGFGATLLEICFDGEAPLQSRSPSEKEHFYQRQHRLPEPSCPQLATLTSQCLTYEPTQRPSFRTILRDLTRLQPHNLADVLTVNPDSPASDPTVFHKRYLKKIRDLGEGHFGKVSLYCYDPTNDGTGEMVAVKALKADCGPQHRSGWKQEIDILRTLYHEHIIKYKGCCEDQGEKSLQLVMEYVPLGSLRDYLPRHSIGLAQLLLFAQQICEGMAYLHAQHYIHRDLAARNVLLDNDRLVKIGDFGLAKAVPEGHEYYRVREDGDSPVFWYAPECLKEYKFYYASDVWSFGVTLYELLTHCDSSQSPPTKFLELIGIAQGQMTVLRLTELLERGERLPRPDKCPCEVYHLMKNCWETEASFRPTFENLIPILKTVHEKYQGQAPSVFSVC
T1 sequence (P23458 849-1154): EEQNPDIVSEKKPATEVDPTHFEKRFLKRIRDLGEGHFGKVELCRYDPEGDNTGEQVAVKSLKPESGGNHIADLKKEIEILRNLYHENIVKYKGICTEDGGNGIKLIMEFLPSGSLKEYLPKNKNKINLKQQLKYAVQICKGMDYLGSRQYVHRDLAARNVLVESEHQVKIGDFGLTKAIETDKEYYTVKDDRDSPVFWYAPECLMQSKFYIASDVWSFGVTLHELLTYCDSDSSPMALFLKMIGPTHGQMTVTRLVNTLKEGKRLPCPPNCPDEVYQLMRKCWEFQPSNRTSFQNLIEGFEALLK

IC50 ([1]; Table D1) [nM] | IC50 ([2]; Table D1) [nM] | IC50 (TYK2; Table D1) [nM] | IC50 ([3]; Table D1) [nM] | IC50 [1] [nM] | IC50 [2] [nM] | IC50 (TYK2) [nM] | IC50 [3] [nM] | Compound | also measured
60 | > 400 | 326 | 300 | – | – | – | – | O=C(COc1ccc2cc1CCc1cncc(c1)Nc1ncc(Cl)c(n1)N2)N1CCN(c2ccncc2)CC1 [Example D243, 6-Chloro-12-[2-oxo-2-(4-pyridin-4-ylpiperazin-1-yl)ethoxy]-2,4,8,18,22-pentaazatetracyclo[14.3.1.1(3,7).1(9,13)]docosa-1(20),3(22),4,6,9(21),10,12,16,18-nonaene tris(trifluoroacetate)] | –
39 | > 400 | > 400 | 235 | – | – | – | – | O=C(Nc1cccc(F)c1)N1CCC(CCOc2ccc3cc2CCc2cncc(c2)Nc2ncc(Cl)c(n2)N3)CC1 [Example D169, 4-(2-{[6-Chloro-2,4,8,18,22-pentaazatetracyclo[14.3.1.1(3,7).1(9,13)]docosa-1(20),3(22),4,6,9(21),10,12,16,18-nonaen-12-yl]oxy}ethyl)-N-(3-fluorophenyl)piperidine-1-carboxamide bis(trifluoroacetate)] | –
53 | 162 | 792 | 40 | – | – | – | – | O=C(Cn1c(=O)oc2c3cc(cc21)Nc1nc(ncc1Cl)Nc1cccc(c1)CC3)NCc1ccccc1 [Example D186, N-Benzyl-2-[4-chloro-19-oxo-18-oxa-2,6,8,20,25-pentaazapentacyclo[14.6.1.1(3,7).1(9,13).0(17,21)]pentacosa-1(23),3(25),4,6,9(24),10,12,16,21-nonaen-20-yl]acetamide trifluoroacetate] | –
29 | > 400 | > 400 | 226 | – | – | – | – | N#CCC(=O)N1CCN(C(=O)COc2ccc3cc2CCc2cncc(c2)Nc2ncc(Cl)c(n2)N3)CC1 [Example D269, 3-[4-({[6-Chloro-2,4,8,18,22-pentaazatetracyclo[14.3.1.1(3,7).1(9,13)]docosa-1(20),3(22),4,6,9(21),10,12,16,18-nonaen-12-yl]oxy}acetyl)piperazin-1-yl]-3-oxopropanenitrile bis(trifluoroacetate)] | –
22 | 65 | 30 | 12 | – | – | – | – | O=C(C[C@@H]1CCCN(C(=O)c2ccccc2)C1)Nc1ccc2cc1CCc1cccc(c1)Nc1ncc(Cl)c(n1)N2 [Example D202, 2-[(3S)-1-Benzoylpiperidin-3-yl]-N-[6-chloro-2,4,8,22-tetraazatetracyclo[14.3.1.1(3,7).1(9,13)]docosa-1(20),3(22),4,6,9(21),10,12,16,18-nonaen-12-yl]acetamide trifluoroacetate] | –
21 | > 400 | 265 | 95 | – | – | – | – | O=C(CC1CN(c2nccs2)C1)Nc1ccc2cc1CCc1cncc(c1)Nc1ncc(Cl)c(n1)N2 [Example D152, N-[6-Chloro-2,4,8,18,22-pentaazatetracyclo[14.3.1.1(3,7).1(9,13)]docosa-1(20),3(22),4,6,9(21),10,12,16,18-nonaen-12-yl]-2-[1-(1,3-thiazol-2-yl)azetidin-3-yl]acetamide tris(trifluoroacetate)] | –
13 | > 400 | 46 | 64 | – | – | – | – | Cc1cc(C(=O)N2CCC(CCNc3ccc4cc3CCc3cncc(c3)Nc3ncc(Cl)c(n3)N4)CC2)no1 [Example D218, 6-Chloro-N-(2-{1-[(5-methylisoxazol-3-yl)carbonyl]piperidin-4-yl}ethyl)-2,4,8,18,22-pentaazatetracyclo[14.3.1.1(3,7).1(9,13)]docosa-1(20),3(22),4,6,9(21),10,12,16,18-nonaen-12-amine tris(trifluoroacetate)] | –
> 400 | > 400 | > 400 | 106 | – | – | – | – | CN1c2cccc(c2)CCc2cccc(c2)Nc2nccc1n2 [Example D223, 8-Methyl-2,4,8,22-tetraazatetracyclo[14.3.1.1(3,7).1(9,13)]docosa-1(20),3(22),4,6,9(21),10,12,16,18-nonaene trifluoroacetate] | –
75 | > 400 | > 400 | > 400 | – | – | – | – | O=C(COc1ccc2cc1CCc1cncc(c1)Nc1ncc(Cl)c(n1)N2)N1CCN(c2nccc3occc23)CC1 [Example D245, 6-Chloro-12-[2-(4-furo[3,2-c]pyridin-4-ylpiperazin-1-yl)-2-oxoethoxy]-2,4,8,18,22-pentaazatetracyclo[14.3.1.1(3,7).1(9,13)]docosa-1(20),3(22),4,6,9(21),10,12,16,18-nonaene tris(trifluoroacetate)] | –
313 | > 400 | > 400 | > 400 | – | – | – | – | O=C(Cc1ccccc1)N1CCC(Nc2ccc3cc2CCc2cncc(c2)Nc2ncc(Cl)c(n2)N3)CC1 [Example D159, 6-Chloro-N-[1-(phenylacetyl)piperidin-4-yl]-2,4,8,18,22-pentaazatetracyclo[14.3.1.1(3,7).1(9,13)]docosa-1(20),3(22),4,6,9(21),10,12,16,18-nonaen-12-amine tris(trifluoroacetate)] | –
68 | > 400 | > 400 | 180 | – | – | – | – | O=C(Nc1cccnc1)N1CCC(CCOc2ccc3cc2CCc2cncc(c2)Nc2ncc(Cl)c(n2)N3)CC1 [Example D182, 4-(2-{[6-Chloro-2,4,8,18,22-pentaazatetracyclo[14.3.1.1(3,7).1(9,13)]docosa-1(20),3(22),4,6,9(21),10,12,16,18-nonaen-12-yl]oxy}ethyl)-N-pyridin-3-ylpiperidine-1-carboxamide tris(trifluoroacetate)] | –

More lines, now with the values behind:

Compound | IC50 ([1]; Table D1) [nM] | IC50 ([2]; Table D1) [nM] | IC50 (TYK2; Table D1) [nM] | IC50 ([3]; Table D1) [nM] | IC50 [1] [nM] | IC50 [2] [nM] | IC50 (TYK2) [nM] | IC50 [3] [nM] | also measured
Cc1cc(C(=O)N2CCC(CC(=O)Nc3ccc4cc3CCc3cccc(c3)Nc3ncc(F)c(n3)N4)CC2)no1 [Example C52, N-[6-Fluoro-2,4,8,22-tetraazatetracyclo[14.3.1.1(3,7).1(9,13)]docosa-1(20),3(22),4,6,9(21),10,12,16,18-nonaen-12-yl]-2-{1-[(5-methylisoxazol-3-yl)carbonyl]piperidin-4-yl}acetamide trifluoroacetate] | – | – | – | – | > 200 | > 200 | > 200 | > 200 | –
O=C(c1ccccn1)N1Cc2cccc(c2)Nc2ncc(Cl)c(n2)Nc2cccc1c2 [Example C23, 6-Chloro-14-(pyridin-2-ylcarbonyl)-2,4,8,14,22-pentaazatetracyclo[14.3.1.1(3,7).1(9,13)]docosa-1(20),3(22),4,6,9(21),10,12,16,18-nonaene] | – | – | – | – | 162 | > 10000 | 1140 | 281 | –
CCCC(=O)N1Cc2cccc(c2)Nc2ncc(Cl)c(n2)Nc2cccc1c2 [Example C26, 14-Butyryl-6-chloro-2,4,8,14,22-pentaazatetracyclo[14.3.1.1(3,7).1(9,13)]docosa-1(20),3(22),4,6,9(21),10,12,16,18-nonaene] | – | – | – | – | 228 | > 10000 | 1420 | 357 | –
Cc1nc(C)c(CC(=O)Nc2ccc3cc2CCc2cccc(c2)Nc2ncc(Cl)c(n2)N3)s1 [Example C43, N-[6-Chloro-2,4,8,22-tetraazatetracyclo[14.3.1.1(3,7).1(9,13)]docosa-1(20),3(22),4,6,9(21),10,12,16,18-nonaen-12-yl]-2-(2,4-dimethyl-1,3-thiazol-5-yl)acetamide trifluoroacetate] | – | – | – | – | 22 | 1140 | 88 | 31 | –
O=C(Cc1ccccn1)Nc1ccc2cc1CCc1cccc(c1)Nc1ncc(Cl)c(n1)N2 [Example C41, N-[6-Chloro-2,4,8,22-tetraazatetracyclo[14.3.1.1(3,7).1(9,13)]docosa-1(20),3(22),4,6,9(21),10,12,16,18-nonaen-12-yl]-2-pyridin-2-ylacetamide bis(trifluoroacetate)] | – | – | – | – | 112 | 1170 | 246 | 65 | –
O=C(c1ccccc1)N1Cc2cccc(c2)Nc2ncc(Cl)c(n2)Nc2cccc1c2 [Example C22, 14-Benzoyl-6-chloro-2,4,8,14,22-pentaazatetracyclo[14.3.1.1(3,7).1(9,13)]docosa-1(20),3(22),4,6,9(21),10,12,16,18-nonaene] | – | – | – | – | 24 | > 400 | 88 | 32 | –
Cc1ccc(C(=O)N2Cc3cccc(c3)Nc3ncc(Cl)c(n3)Nc3cccc2c3)cc1 [Example C24, 6-Chloro-14-(4-methylbenzoyl)-2,4,8,14,22-pentaazatetracyclo[14.3.1.1(3,7).1(9,13)]docosa-1(20),3(22),4,6,9(21),10,12,16,18-nonaene] | – | – | – | – | 95 | 1200 | 1030 | 154 | –
Clc1cnc2nc1Nc1ccc(OCC3CCNC3)c(c1)CCc1cncc(c1)N2 (centres unmarked) [Example C55, 6-Chloro-12-(pyrrolidin-3-ylmethoxy)-2,4,8,18,22-pentaazatetracyclo[14.3.1.1(3,7).1(9,13)]docosa-1(20),3(22),4,6,9(21),10,12,16,18-nonaene trihydrochloride] | – | – | – | – | 96 | > 400 | > 400 | > 400 | –
Cc1nc(S(=O)(=O)Nc2ccc3cc2CCc2cccc(c2)Nc2ncc(Cl)c(n2)N3)cn1C [Example B151, N-[6-Chloro-2,4,8,22-tetraazatetracyclo[14.3.1.1(3,7).1(9,13)]docosa-1(20),3(22),4,6,9(21),10,12,16,18-nonaen-12-yl]-1,2-dimethyl-1H-imidazole-4-sulfonamide bis(trifluoroacetate)] | – | – | – | – | – | – | – | – | IC50 ([1]; Table B1): 2.9 nM; IC50 ([2]; Table B1): 36 nM; IC50 (TYK2; Table B1): 1.4 nM; IC50 ([3]; Table B1): 1.2 nM
